From article PMC4033217, “Characterization of Novel PI3Kδ Inhibitors as Potential Therapeutics for SLE and Lupus Nephritis in Pre-Clinical Studies” (Frontiers in Immunology, 2014)
“Also recorded” adds a separate entry of the source. Read-outs that look alike come from different tables or passages of the source.

What was measured:
[1] = biological target: PI3K α (Homo sapiens, UniProt P42336); test: Scintillation proximity assay, PI3Kα enzymatic activity; assay type: biochemical; settings: 65 μM ATP, read-out: Enzymatic potency IC50
[2] = biological target: PI3K β (Homo sapiens, UniProt P42338); test: Scintillation proximity assay, PI3Kβ enzymatic activity; assay type: biochemical; settings: 65 μM ATP, read-out: Enzymatic potency IC50
[3] = biological target: PI3K γ (Homo sapiens, UniProt P48736); test: Scintillation proximity assay, PI3Kγ enzymatic activity; assay type: biochemical; settings: 65 μM ATP, read-out: Enzymatic potency IC50
[4] = biological target: Hck (Homo sapiens, UniProt P08631); test: Hck kinase inhibition; assay type: biochemical
[5] = biological target: PAK3 (Homo sapiens, UniProt O75914); test: PAK3 kinase inhibition; assay type: biochemical
[6] = test system: pAkt in Ramos B cells; test: BCR-crosslinking (anti-IgM)-induced Akt phosphorylation in Ramos cells; assay type: cell-based; settings: Homo sapiens, 0.25 h, anti-IgM 15 min
[7] = test system: CD4+CD45RA− memory T-cells; test: T-cell cytokine release assay (anti-CD3/anti-CD28); assay type: cell-based, human; settings: for IC50: Homo sapiens, T-cell, 120 h, memory T-cells, anti-CD3 and anti-CD28, 5 days
Procedure: Purified T-cells were incubated with PI3Kδ inhibitors for 1 h, and stimulated with 5 μg/ml anti-CD3 and 2 μg/ml anti-CD28 for 5 days. Cytokines in the supernatants were measured with Luminex® xMAP® multiplex bead assay kits (Bio-Rad, Hercules, CA, USA).

[8] = test system: CD123+/CD303+ pDC cells; test: Plasmacytoid dendritic cell IFN-α release assay (CpG ODN 2395); assay type: cell-based, human
Procedure: Plasmacytoid dendritic cells were isolated from PBMC of healthy volunteers by negative selection using pDC purification kit (Miltenyi Biotech, Bergisch Gladbach, Germany). […] IFN-α in the supernatants was measured from the culture supernatants with Verikine ELISA kit (PBL Assay Science, Piscataway, NJ, USA).

[9] = test system: B cell/PBMC co-culture; test: BioMAP B–T system (B cell/PBMC co-culture, anti-IgM and mild TCR stimulation); assay type: cell-based, human; settings: 84 h
Procedure: Positively selected primary normal human CD19^+ B cells and CD4^+ T-cells were obtained from AllCells (Emeryville, CA, USA). PBMC were isolated from buffy coats (Stanford Blood Center, Stanford, CA, USA).
The levels of readout parameters were measured by ELISA ([14], [15]). Measurement values for each biomarker readout in a compound-treated sample were divided by the mean value from eight DMSO control samples (from the same plate) to generate a ratio. All ratios were then log10 transformed and plotted (BioMAP profile). Overt cytotoxicity of test compounds was assessed by total cell protein staining sulforhodamine B (Sigma-Aldrich, St. Louis, MO, USA) for adherent cells, or by cell viability staining Alamar Blue (Invitrogen, Carlsbad, CA, USA) for non-adherent cells.
This system models both T-cell-dependent B cell activation and class-switching as would occur in a germinal center, and B-cell-dependent T-cell responses, such as cytokine release ([13]).

[10] = test system: CD69 on CD19+ B cells, human whole blood; test: Anti-IgM-induced CD69 in human whole blood; assay type: cell-based; settings: B-cell, healthy donors, 18 h, read-out: IC50 anti-IgM-induced CD69 up-regulation
Excerpt: After red blood cells lysis, CD19^+ cells were gated for CD69 analysis.

[11] = test system: pAkt in B220+ B cells, mouse whole blood; test: Anti-IgD-induced pAkt in mouse whole blood (in vitro); assay type: cell-based; settings: for IC50: B-cell, mouse whole blood in vitro, anti-IgD
Procedure: Whole blood withdrawn from C57BL/6N mice (Charles River Laboratories, L’Arbresle, France) was incubated with PI3Kδ inhibitors for 30 min and stimulated with goat anti-mouse IgD antiserum (eBioscience, San Diego, CA, USA) for 7 min at 37°C. […] Cells were stained with rabbit anti-pAkt (Ser473) for 1 h followed by anti-IgD-FITC, anti-B220-PerCP-Cy5.5 (all BD Biosciences Pharmingen, San Diego, CA, USA), and donkey anti-rabbit IgG-Alexa647 (Invitrogen, Carlsbad, CA, USA) for 30 min at room temperature. B220^+IgD^+ cells were gated for pAkt analysis.

[12] = test system: CD69 on B220+ B cells, mouse whole blood; test: Anti-IgD-induced CD69 in mouse whole blood (in vitro); assay type: cell-based; settings: B-cell
Procedure: Whole blood withdrawn from naïve C57BL/6N mice (Charles River Laboratories, L’Arbresle, France) were incubated with PI3Kδ inhibitors for 30 min and stimulated with 1/12 goat anti-mouse IgD antiserum (eBioscience, San Diego, CA, USA) for 4 h before staining with anti-B220-PerCP-Cy5.5 and anti-CD69-PE (all BD Biosciences Pharmingen, San Diego, CA, USA) for 30 min at room temperature. After red blood cells lysis, B220^+IgD^+ cells were gated for CD69 analysis.

[13] = test system: pAkt and CD69 in B cells; test: Ex vivo mouse whole blood assays (pAkt, CD69) after oral dosing; assay type: in vivo; settings: for ED50: Mus musculus, B-cell, naïve C57BL/6N mice, read-out: ED50 inhibition of pAkt and CD69
Procedure: PI3Kδ inhibitors were administered to naïve C57BL/6N mice (Charles River Laboratories, L’Arbresle, France), by gavage at indicated time points before heparinized whole blood was obtained and divided into two aliquots. One aliquot was incubated with anti-IgD as stimulation and another PBS as basal control. pAkt in B cells or CD69 up-regulation on B cell surface of each sample was measured as described for the in vitro assays. The difference between stimulated and basal levels of mean fluorescence intensity (MFI) was calculated as Δ value.

[14] = In vivo pharmacokinetics in mouse; settings: estimated
[15] = test system: NZB/W F1 mice; test: IFNα-accelerated NZB/W F1 mouse SLE model; assay type: in vivo
Procedure: All protocols and procedures were conducted according to German animal protection law (Tierschutzgesetz) and were approved by the local veterinarian authorities (Regierungspräsidium, Darmstadt, Germany). Ten-week-old female NZB/W F1 mice (Jackson Laboratories, Bar Harbor, ME, USA) were given a single i.v. injection of 1 × 10^8 IU/100 μl of AdV-IFN-α (adenovirus with mmIfna5_v1 insert, Biofocus, CoA.NL.09.160) in saline or left untreated (sham). Drug treatments were either initiated at 2 weeks (early intervention regimen) or 4 weeks (late intervention regimen) post AdV-IFN-α delivery until the end of the experiment (at 10 weeks). […] Serum and urine samples were collected for anti-dsDNA antibodies (by ELISA) and urinary protein creatinine ratio (UPCR) (measured by ADVIA 1800) determination, respectively, on the days indicated. Proteinuria is defined as UPCR >3.

[16] = Caco-2 permeability; assay type: in vitro ADME; settings: human
Excerpt: (§1) 36 CLint: intrinsic clearance in liver microsomes. h/m: human/mouse. Papp: apparent permeability. uPPB:
(§2) 37 unbound plasma protein binding. […]

[17] = Unbound plasma protein binding, human; assay type: in vitro ADME; settings: unbound fraction
Excerpt: as §1, §2

[18] = Human PK prediction based on allometric scaling; settings: data not shown
[19] = test system: 12 BioMAP human primary cell co-culture systems; test: BioMAP profiling in 12 human primary cell co-culture systems; settings: any concentration (from 10 to 33.3 μM as printed), any culture system
Procedure: Overt cytotoxicity of test compounds was assessed by total cell protein staining sulforhodamine B (Sigma-Aldrich, St. Louis, MO, USA) for adherent cells, or by cell viability staining Alamar Blue (Invitrogen, Carlsbad, CA, USA) for non-adherent cells.
Overtly adverse effects of
Proliferation of PBMC (T cells) was
140 quantiﬁ ed by Alamar blue reduction and proliferation of adherent cell types was quantiﬁ ed by SRB
PBMC viability was assessed by adding Alamar blue (Invitrogen, Camarillo, CA) to PBMC
SRB was performed by removing supernatants from plates, washing plates with
Plates are washed ag ain with PBS then,
Overtly cytotoxic compounds are

Sequence of PI3K γ (P48736 whole entry): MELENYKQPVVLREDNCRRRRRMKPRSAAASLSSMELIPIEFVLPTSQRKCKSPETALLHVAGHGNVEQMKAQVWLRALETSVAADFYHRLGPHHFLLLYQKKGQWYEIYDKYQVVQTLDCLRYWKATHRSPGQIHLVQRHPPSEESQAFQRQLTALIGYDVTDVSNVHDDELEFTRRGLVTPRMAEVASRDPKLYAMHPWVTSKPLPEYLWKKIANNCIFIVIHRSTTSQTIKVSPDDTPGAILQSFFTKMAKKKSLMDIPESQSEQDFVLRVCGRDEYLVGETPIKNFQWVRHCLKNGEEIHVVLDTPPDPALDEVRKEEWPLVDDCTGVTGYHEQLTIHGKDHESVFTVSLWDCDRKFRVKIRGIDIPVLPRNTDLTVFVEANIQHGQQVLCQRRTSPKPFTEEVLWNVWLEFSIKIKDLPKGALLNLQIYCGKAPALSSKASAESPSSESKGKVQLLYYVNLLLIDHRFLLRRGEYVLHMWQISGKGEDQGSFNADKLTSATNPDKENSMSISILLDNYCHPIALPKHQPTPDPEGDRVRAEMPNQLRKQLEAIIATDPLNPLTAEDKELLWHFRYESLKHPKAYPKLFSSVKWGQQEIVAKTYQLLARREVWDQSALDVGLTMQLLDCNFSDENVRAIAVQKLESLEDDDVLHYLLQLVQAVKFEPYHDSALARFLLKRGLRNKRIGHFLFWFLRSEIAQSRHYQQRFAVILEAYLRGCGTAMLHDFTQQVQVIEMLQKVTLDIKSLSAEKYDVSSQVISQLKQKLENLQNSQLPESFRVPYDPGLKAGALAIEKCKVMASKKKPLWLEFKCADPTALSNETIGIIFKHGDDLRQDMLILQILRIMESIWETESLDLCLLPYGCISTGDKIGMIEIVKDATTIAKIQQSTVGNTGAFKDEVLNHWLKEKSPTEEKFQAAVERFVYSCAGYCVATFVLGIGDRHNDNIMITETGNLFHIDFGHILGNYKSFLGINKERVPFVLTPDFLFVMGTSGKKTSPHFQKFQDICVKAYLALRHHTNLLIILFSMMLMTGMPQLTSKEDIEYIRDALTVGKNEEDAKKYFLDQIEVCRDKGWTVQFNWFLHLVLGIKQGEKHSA
Sequence of Hck (P08631 whole entry, species assumed): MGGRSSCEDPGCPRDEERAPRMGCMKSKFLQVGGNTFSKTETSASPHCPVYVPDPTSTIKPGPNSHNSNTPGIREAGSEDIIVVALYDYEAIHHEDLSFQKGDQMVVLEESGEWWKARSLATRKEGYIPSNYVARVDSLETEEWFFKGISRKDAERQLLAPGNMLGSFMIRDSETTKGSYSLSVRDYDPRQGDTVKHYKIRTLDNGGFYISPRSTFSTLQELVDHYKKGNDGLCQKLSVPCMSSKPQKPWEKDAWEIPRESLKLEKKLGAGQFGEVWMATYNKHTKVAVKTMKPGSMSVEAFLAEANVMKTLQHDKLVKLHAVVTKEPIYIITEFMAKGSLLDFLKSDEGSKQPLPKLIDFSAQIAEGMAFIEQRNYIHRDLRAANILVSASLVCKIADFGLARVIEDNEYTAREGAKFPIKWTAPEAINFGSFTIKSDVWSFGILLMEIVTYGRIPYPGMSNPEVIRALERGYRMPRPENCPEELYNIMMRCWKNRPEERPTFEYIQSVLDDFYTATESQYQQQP
Sequence of PI3K α (P42336 whole entry): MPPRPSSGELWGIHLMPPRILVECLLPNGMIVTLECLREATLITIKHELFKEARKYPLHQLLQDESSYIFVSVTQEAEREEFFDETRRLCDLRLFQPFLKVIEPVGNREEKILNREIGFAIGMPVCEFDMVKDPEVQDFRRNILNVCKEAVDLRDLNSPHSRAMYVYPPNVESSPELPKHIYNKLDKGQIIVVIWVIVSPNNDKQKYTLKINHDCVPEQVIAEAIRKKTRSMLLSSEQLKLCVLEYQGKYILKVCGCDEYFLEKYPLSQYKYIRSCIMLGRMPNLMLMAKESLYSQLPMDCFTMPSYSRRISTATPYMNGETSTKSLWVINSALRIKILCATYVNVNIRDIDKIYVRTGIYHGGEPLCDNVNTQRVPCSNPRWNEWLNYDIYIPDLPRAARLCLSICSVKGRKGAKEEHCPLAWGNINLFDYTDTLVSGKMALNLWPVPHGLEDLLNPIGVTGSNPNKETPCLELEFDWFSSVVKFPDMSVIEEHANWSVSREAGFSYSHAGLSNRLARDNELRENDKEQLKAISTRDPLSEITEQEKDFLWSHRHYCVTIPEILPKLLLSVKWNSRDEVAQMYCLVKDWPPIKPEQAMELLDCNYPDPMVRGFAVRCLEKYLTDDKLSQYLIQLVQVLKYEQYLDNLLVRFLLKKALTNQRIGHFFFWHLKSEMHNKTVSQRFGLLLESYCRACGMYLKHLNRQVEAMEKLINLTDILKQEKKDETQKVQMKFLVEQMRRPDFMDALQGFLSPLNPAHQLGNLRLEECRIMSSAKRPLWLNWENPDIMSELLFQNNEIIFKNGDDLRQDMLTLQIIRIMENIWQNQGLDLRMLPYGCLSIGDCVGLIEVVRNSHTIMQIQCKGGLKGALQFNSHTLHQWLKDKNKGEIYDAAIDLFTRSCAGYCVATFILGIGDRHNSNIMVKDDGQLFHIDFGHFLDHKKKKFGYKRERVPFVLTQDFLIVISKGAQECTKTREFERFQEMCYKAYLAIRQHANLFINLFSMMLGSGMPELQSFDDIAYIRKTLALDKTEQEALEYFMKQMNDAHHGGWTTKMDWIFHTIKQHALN
Sequence of PI3K α (P27986 whole entry partner): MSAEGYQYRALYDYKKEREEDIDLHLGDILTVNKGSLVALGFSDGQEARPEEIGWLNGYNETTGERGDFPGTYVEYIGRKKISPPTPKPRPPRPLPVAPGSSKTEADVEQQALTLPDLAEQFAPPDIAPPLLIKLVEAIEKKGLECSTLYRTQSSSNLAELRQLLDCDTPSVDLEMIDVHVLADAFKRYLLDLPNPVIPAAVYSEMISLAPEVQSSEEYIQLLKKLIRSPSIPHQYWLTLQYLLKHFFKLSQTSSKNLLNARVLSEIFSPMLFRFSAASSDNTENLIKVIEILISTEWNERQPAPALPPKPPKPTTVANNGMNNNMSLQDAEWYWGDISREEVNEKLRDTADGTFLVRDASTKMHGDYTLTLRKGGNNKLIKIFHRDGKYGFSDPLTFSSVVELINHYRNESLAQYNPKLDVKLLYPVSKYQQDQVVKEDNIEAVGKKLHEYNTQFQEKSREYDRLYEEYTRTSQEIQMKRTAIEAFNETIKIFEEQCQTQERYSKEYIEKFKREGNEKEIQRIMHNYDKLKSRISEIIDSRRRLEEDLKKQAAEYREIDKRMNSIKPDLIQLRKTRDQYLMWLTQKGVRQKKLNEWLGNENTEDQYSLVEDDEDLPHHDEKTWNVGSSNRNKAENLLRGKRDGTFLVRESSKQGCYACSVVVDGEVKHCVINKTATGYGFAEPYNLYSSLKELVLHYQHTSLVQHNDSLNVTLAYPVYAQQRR
Sequence of PI3K β (P42338 whole entry): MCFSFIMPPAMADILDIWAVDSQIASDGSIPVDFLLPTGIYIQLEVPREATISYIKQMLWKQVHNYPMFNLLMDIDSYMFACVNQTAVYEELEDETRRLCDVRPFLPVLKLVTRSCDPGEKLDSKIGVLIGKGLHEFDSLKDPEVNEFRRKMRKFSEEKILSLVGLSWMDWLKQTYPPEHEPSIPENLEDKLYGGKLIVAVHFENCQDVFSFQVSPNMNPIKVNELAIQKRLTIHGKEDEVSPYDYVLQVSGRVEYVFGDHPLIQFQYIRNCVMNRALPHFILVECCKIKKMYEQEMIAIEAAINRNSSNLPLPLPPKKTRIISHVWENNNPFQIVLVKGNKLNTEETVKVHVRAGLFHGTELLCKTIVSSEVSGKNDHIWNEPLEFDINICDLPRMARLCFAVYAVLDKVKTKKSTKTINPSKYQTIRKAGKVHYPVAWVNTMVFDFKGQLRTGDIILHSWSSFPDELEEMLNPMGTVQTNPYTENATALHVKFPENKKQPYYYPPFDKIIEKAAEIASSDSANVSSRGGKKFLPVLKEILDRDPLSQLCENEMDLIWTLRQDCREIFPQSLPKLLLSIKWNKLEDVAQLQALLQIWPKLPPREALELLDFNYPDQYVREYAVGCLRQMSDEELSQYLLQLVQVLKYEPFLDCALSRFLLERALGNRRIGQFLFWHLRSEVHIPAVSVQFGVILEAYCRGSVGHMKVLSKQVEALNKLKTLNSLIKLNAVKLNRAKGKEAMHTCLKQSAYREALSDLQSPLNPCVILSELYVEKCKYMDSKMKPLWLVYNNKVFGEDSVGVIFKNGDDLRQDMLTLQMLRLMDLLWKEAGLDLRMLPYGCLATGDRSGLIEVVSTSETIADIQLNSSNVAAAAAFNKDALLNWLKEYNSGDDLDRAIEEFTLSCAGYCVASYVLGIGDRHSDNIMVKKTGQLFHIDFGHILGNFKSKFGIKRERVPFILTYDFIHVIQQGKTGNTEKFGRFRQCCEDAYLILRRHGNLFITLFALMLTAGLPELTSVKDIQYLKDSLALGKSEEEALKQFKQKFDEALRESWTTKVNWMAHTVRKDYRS
Sequence of PI3K β (P27986 whole entry partner): as the sequence (P27986 whole entry partner) above
Sequence of PAK3 (O75914 whole entry, species assumed): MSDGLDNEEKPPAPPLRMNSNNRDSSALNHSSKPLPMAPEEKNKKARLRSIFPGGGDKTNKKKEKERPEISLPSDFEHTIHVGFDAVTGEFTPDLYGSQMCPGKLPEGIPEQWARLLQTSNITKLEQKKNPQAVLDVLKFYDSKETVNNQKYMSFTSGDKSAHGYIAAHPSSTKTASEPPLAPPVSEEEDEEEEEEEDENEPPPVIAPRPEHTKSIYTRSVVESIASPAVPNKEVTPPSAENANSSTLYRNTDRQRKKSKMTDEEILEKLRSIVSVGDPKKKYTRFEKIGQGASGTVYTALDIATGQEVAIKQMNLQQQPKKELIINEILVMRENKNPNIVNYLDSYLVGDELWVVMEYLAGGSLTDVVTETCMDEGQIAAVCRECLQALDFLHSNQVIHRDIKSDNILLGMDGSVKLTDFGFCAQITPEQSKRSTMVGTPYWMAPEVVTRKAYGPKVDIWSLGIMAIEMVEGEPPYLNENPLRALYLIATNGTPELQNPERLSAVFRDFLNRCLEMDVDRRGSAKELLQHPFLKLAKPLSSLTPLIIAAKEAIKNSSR

`O=C(c1nn([C@@H]2CCCN(CCN3CCOCC3)C2)c2c1CS(=O)(=O)c1cc(F)ccc1-2)N1CCOCC1` [MSC2364588, (R)-7-fluoro-3-(morpholin-4-ylcarbonyl)-1-[1-(2-morpholin-4-ylethyl)piperidin-3-yl]-1,4-dihydrothiochro-meno[4,3-c]pyrazole 5,5-dioxide] showed an IC50 [1] of 7650 nM, an IC50 [2] of 2450 nM and an IC50 [3] of over 20000 nM. For the same compound, the IC50 [4] was over 10000 nM, the IC50 [5] was over 10000 nM and the IC50 [6] was 57 nM. The IC50 ([7]; read-out: IC50 IL-6) was 23 nM, the IC50 ([7]; read-out: IC50 IL-10) was 18 nM and the IC50 ([7]; read-out: IC50 IL-17) was 16 nM. The IC50 ([7]; read-out: IC50 TNF-α) was 57 nM, the “Potency relative to MSC2360844” value ([7]; T-cell cytokines) was 10 times and the “Suppression of IFNα production by pDCs” value ([8]; CpG oligodeoxynucleotide-induced, TLR9-mediated) was “suppressed”. The IC50 ([8]; Homo sapiens, Plasmacytoid dendritic cell, pDC, CpG ODN 2395 Type C, 18 h) was 105 nM, the “B cell proliferation and IgG secretion, IL-17A, IL-2 and TNFα release” value [9] was “significantly and dose-dependently inhibited” and the IL-6 levels [9] was “no effect”. The IC50 [10] was 21 nM, the IC50 ([11]; average, read-out: average IC50 for pAkt) was 35 nM and the IC50 ([11]; representative experiment of Figure 5A, read-out: IC50 pAkt) was 59 nM. For the same compound, the “Potency relative to MSC2360844” value ([11]; mouse whole blood in vitro assay) was “approximately 10 folds”, the IC50 ([12]; average, read-out: average IC50 for CD69) was 16 nM and the IC50 ([12]; representative experiment of Figure 5B, read-out: IC50 CD69) was 18 nM. The “Effect on pAkt and CD69” value ([13]; 6 h post administration) was “almost no effect”, the ED50 ([13]; 1 h time point) was 3 mg/kg and the ED50 ([13]; 2 h) was about 10 mg/kg. It also gave a CL/F ([14]; C57BL/6N, plasma, po) of 418 mL/min/kg, a half-life ([14]; C57BL/6N, plasma, po) of 36 min and a Ka [14] of 1.6 h⁻¹. The V/F [14] was 5.8 L/kg, the “Proteinuria progression / disease severity” value ([15]; half daily dose given twice daily, early intervention) was “reduces disease severity; also recorded: Equivalent results” and the “Drug-related body weight loss” value ([15]; throughout the studies, data not shown) was “no drug-related body weight loss”. The Papp [16] was 2.4 ×10⁻⁶ cm/s, the efflux ratio [16] was 1.6 and the uPPB % [17] was 100%. The “Predicted human half-life / dosing frequency” value [18] was “predicted to require twice daily dosing” and the Cytotoxicity [19] was “No signs of cytotoxicity”.
